The values that follow come from patent US20100215710A1, “Beta-2 Adrenergic Receptor Agonists and Antagonists and Modulation of Wound Healing” (The Regents of the University of California, priority 2005, published 2010).

For series [1], the system named is human keratinocytes. The series is described as follows: Scratch assay, confluent keratinocyte cultures (clenbuterol). The format is cell-based. To be noted: 1 μM clenbuterol. As for the experimental part:
Human keratinocytes were isolated from neonatal foreskins as reported previously (Isseroff et al. (1987) Conversion of linoleic acid into arachidonic acid by cultured murine and human keratinocytes. J Lipid Res 28:1342-1349) and cultured using a modification of the method of Rheinwald and Green (Rheinwald and Green (1975) Serial cultivation of strains of human epidermal keratinocytes: the formation of keratinizing colonies from single cells. Cell 6:331-343). […]
Cells were grown to confluence on cover-slips (Fisher Scientific, Pittsburgh, Pa.) coated with 60 μg/ml Collagen I (Vitrogen 100, Collagen Corp., Palo Alto, Calif.). […] The area of the wound was determined using NIH Image 1.6 and the percent wound healing calculated by dividing the area of the wound at time X by the area of the wound at time 0 and multiplying by 100. […]
Keratinocytes were grown to confluence on collagen-coated glass cover-slips in the absence (control) or presence of 1 μM clenbuterol. […] Representative photographs of images at time 40 hours are shown in FIG. 1 Panel A. The percent wound healing was calculated and is represented graphically in FIG. 1 Panel B; control wounds are indicated by circles, clenbuterol treated by squares. […]

Series [2] concerns human keratinocytes. The series is described as follows: Single cell migration assay, keratinocytes (clenbuterol, OA). The format is cell-based. To be noted: 1 μM clenbuterol, one-hour period, vs control. How it is done: All single cell migration assays were performed on cells plated on glass cover-slips inserted into 35 mm plastic dishes (MatTek Corp., Ashland, Mass.) that had been coated for 1 hour at 37° C. with 60 μg/ml collagen L Cells were plated onto the collagen-coated glass cover-slips at a density of 250 cells/mm^2 for 3-6 hours at 37° C. Cells were either untreated (control), pre-treated with 10 nM okadaic acid (OA) (10 nM) for 45 minutes prior to the addition of OA (10 nM) and clenbuterol (1 μM) (OA/Clen) or treated with either OA or clenbuterol (1 μM) alone at time 0. The dishes were inserted into metal plates, maintained at 37° C., on inverted Nikon Diaphot microscopes to monitor single cell migration. Time-lapse images of the cell migratory response were digitally captured every 10 minutes over a one-hour period by Q-Imaging Retiga-EX cameras (Burnaby, BC, Canada) controlled by a custom automation written in Improvision Open Lab software (Lexington, Mass.) on a Macintosh G4. After each cell's center of mass was tracked using the Open Lab software, migration speed and distance were calculated and imported to Excel (Microsoft Corporation, Redmond, Wash.). Significance was taken as p<0.01, using Student's t test (unpaired) to compare the means of the control and β-AR agonist-treated cell populations.
Keratinocytes were plated onto collagen-coated glass cover-slips at a concentration of 250 cells/mm^2 in KGM for 3-6 hours at 37° C. The migration of each single cell was monitored over a one-hour period, and the results were analyzed in excel as described. The speed of migration ([…]) is represented graphically in FIG. 1 Panel C, control n=57, clenbuterol n=57, OA n=60, OA-clenbuterol n=44. The data are representative of three independent experiments with at least two different keratinocyte strains. * P<0.01 between β-AR agonist and controls; #P<0.01 between OA-clenbuterol and clenbuterol alone.

For series [3] the following is noted: cited from earlier work.
Series [4] deals with cultured human keratinocytes. The series is described as follows: Keratinocyte migratory speed with epinephrine at post-burn levels. The format is cell-based. The text has this:
(§1) Since burn wounded patients have elevated levels of the circulating β2-AR activator epinephrine, whether blockade of β2-ARs increases keratinocyte migration and has the potential to accelerate burn wound re-epithelialization was examined.

The subject of series [5] is human keratinocytes. Description: Scratch wounding of confluent keratinocytes with epinephrine. In kind it is cell-based.
Excerpt: as §1

In series [6] the test system is human skin wounds. Description: Human skin wound healing assay (explant culture, 10% serum). The format is cell-based. To be noted: isoproterenol-treated wounds. The source says:
A wound healing model developed by Kratz (Kratz (1998) Modeling of wound healing processes in human skin using tissue culture. Microsc Res Tech 42:345-350) was adapted. Normal human skin was obtained from routine breast reductions or abdominoplasties under an approved exemption granted by the Internal Review Board at University of California, Davis. Under sterile conditions, excess subcutaneous fat was trimmed from 6″×3″ sections of skin prior to stretching and pinning onto sterile cork board. A 3 mm punch (Sklar Instruments, West Chester, Pa.) was used to make wounds in the epidermis and into the superficial dermis and the 3 mm discs of skin were excised using sterile scissors. 6 mm skin discs, with the 3 mm epidermal wound in the center, were excised using a 6 mm biopsy punch (SMS Inc., Columbia, Md.). […] Re-epithelialization was determined using light microscopy. […] Measuring the linear distance covered by new epithelium and dividing that by the linear distance between the original wound edges determined the percentage of re-epithelialization. […]
Wounds, 3 mm in diameter, were generated in excised human skin, cultured in the presence or absence of 10 μM isoproterenol, fixed and stained every day after wounding as described. Re-epithelialization was determined using light microscopy. […]

Series [7] concerns corneal epithelial wounds. The series is described as follows: Corneal epithelial wound healing in vivo in β2-AR +/+ or −/− mice. How it is done: Using male β2-AR +/+ or β2-AR −/− mice, 2 mm diameter circular corneal epithelial wounds (OD) were created using a crescent blade. The corneas were treated topically with Balanced Salt Solution (BSS), BSS with 1% isoproterenol, or BSS with 0.5% timolol, and the wound healing was monitored stereomicroscopically using fluorescein.

Series [8] relates to human skin burn wounds. The series is described as follows: Ex vivo model of burn wound healing in excised human skin. In kind it is cell-based. To be noted: for burn wound re-epithelialization status: 10 μm, day ten after the burn wound, control did not fully re-epithelialize. As for the experimental part:
An ex vivo model of burn wound healing was developed. A heated brass rod was applied to excised human skin, obtained and maintained basically as described above in Example 1. Burn wounds were treated with β-AR agonist (10 μm isoproterenol) or β-AR antagonist (10 μm timolol). […] Images were taken at 40× magnification.

The subject of series [9] is β2-AR. The series is described as follows: Western blot of β2-AR in scratch wounded keratinocyte cultures. Conditions: addition of timolol. The format is cell-based, human.
Excerpt: as §1
For orientation: Immunoblotting shows a protein as a band on a membrane.

As to `CC(C)(C)NCC(O)c1cc(Cl)c(N)c(Cl)c1` (stereo not shown) [clenbuterol], the “time required for scratch wounds to heal” value in series [1] is “significantly increases”. In series [1] (40 hours after wounding, control wounds completely healed), the “percent wound healing of scratch wounds” value worked out at 40%. Besides, in series [2], the “reduction of keratinocyte migratory speed” value was found to be 45%.

As to `CC(C)(C)NCC(O)COc1cccc2c1CC(O)C(O)C2` (stereo not shown) [Nadolol, nadolol], the lipid solubility entry in [3] is on record as “low”.

Consider `CNC[C@H](O)c1ccc(O)c(O)c1` [epinephrine], for which the “decrease in keratinocyte migratory speed” value in series [4] (epinephrine 10 nM) amounted to 75%. Also, the “reduction of scratch wound healing” value in series [5] (epinephrine pretreatment) was found to be 70%.

For `CC(C)NCC(O)c1ccc(O)c(O)c1` (stereo not shown) [isoproterenol], the “re-epithelialization of human skin wounds” value in series [6] is recorded as “significant delay”. Besides, in series [7] (β2-AR +/+ mice, topical BSS with 1% isoproterenol), the “delay of wound healing (rate, linear phase)” value was about 80%. Besides, in series [7] (β2-AR −/− mice, topical BSS with 1% isoproterenol), the “delay of wound healing” value was “but not in β2-AR −/− mice”. In series [8] (10 μm isoproterenol, day ten after the burn), this compound returned a delay of re-epithelialization of 14%. Also, in series [8], the “burn wound re-epithelialization status” value was “did not fully re-epithelialize”.

On to `CC(C)(C)NC[C@H](O)COc1nsnc1N1CCOCC1` [timolol], for which the rate of healing result in [7] (β2-AR +/+ mice, topical BSS with 0.5% timolol) is on record as “increased the rate of healing significantly”. Besides, the “increase in rate of healing” value in [7] (β2-AR −/− mice, topical BSS with 0.5% timolol) is recorded as “but not in β2-AR −/− mice”. Further, the “migratory speed of epinephrine-treated keratinocytes” value in series [4] (timolol 10 μM added to epinephrine 10 nM) was “restored the migratory speed to control levels”. Also, in series [5] (timolol added to epinephrine), the “acceleration of scratch wound healing” value amounted to 20% and the “effect on epinephrine-reduced scratch wound healing” value is “reversed the effects of epinephrine”. In addition, the “β2-AR downregulation one hour after the scratch” value in series [9] was “delayed”. Moreover, in series [8] (10 μm timolol, day ten after the burn), the enhancement of re-epithelialization was determined as 37%. Besides, in series [8], the “burn wound re-epithelialization status” value was “fully re-epithelialized”.
